Assays:
[1] = tested on: adjuvant arthritis (polyarthritis) in the rat; assay: Rat adjuvant arthritis; format: in vivo, rat (male Lewis); details: oral dose 150 mg/kg, days 0 to 15 except weekends; *p ≤ 0.01 from control
Procedure: (§1) The antiinflammatory utility of the compounds of this invention was established by standard procedures for evaluating antiinflammatory agents, namely, carrageenan paw edema in the rat and adjuvant arthritis (polyarthritis) in the rat. These procedures and the results obtained are summarized below:
(§2) Groups of 10 male Lewis rats (Charles River), weighing between 150-170 g were injected s.c. into the right paw with desiccated Mycobacterium butyricum (0.5 mg/0.1 ml) suspended in light mineral oil. Drugs were administered orally in 0.5% methylcellulose. The following dosing regimen was used: days 0 to 15 except for weekends. Both hind paw volumes, in milliliters, were measured by mercury plethysmography at the time of injection of the complete adjuvant (day 0). Paw volumes were measured on day 4 (injected paw only) and on day 16 (uninjected paw). Drug effects were expressed as percentage change from arthritic controls.

[2] = tested on: carrageenan paw edema in the rat; assay: Rat carrageenan edema; format: in vivo, rat (male Sprague-Dawley); details: 1 h before carrageenan, edema at 3 h, *p ≤ 0.01 from control
Procedure: as §1
(§3) Groups of 6 male Sprague-Dawley rats (Honey Brook), weighing between 140-160 g were used in these experiments. Drugs were administered p.o. in 0.5% methylcellulose (400 centipoise). One hour after administering drugs or vehicle, 0.1 ml of 1% carrageenan was injected subplantar into the right hind paw. Right paw volumes were measured prior to carrageenan injection in milliliters using a mercury plethysmograph (i.e., zero time reading). After 3 hours, right paw volumes were remeasured and paw edema was calculated for each rat by subtracting the zero time reading from the 3 hour reading. Percent change in paw edema was calculated.

inflammation = assay: Antiinflammatory activity overall (standard procedures: carrageenan paw edema and adjuvant arthritis in the rat); format: in vivo; details: compared with oxaprozin
Procedure: as §1, §3
as §2, with “Drugs were administered orally in 0.5% methylcellulose. The following dosing regimen was used: days 0 to 15 except for weekends.” left out, “Drug effects were expressed as percentage change from arthritic controls.” left out

| SMILES | % Inhibition of control uninjected paw edema at day 16 [1] [%] | % Inhibition of control paw edema ([2]; oral dose 150 mg/kg) [%] | effectiveness in inhibiting inflammation (inflammation) | % Inhibition of control paw edema ([2]; oral dose 200 mg/kg) [%] |
| --- | --- | --- | --- | --- |
| O=C(O)CCc1nc(-c2ccccc2)c(-c2ccc(O)cc2)o1 [Example 1, 5-(4-hydroxyphenyl)-4-phenyl-2-oxazolepropanoic acid] | 36 | 43 | as effective as oxaprozin in inhibiting inflammation | – |
| O=C(O)CCc1nc(-c2ccc(O)cc2)c(-c2ccccc2)o1 [Example 2, 4-(4-Hydroxyphenyl)-5-phenyl-2-oxazolepropanoic acid] | 30 | 46 | as effective as oxaprozin in inhibiting inflammation | – |
| O=C(O)CCc1nc(-c2ccccc2)c(-c2ccccc2)o1 [Oxaprozin, 4,5-diphenyl-2-oxazolepropanoic acid, reference compound] | 25 | – | – | 51 |

Reference: patent publication US4659728A, “Hydroxy substituted 4,5-diphenyl-2-oxazole propanoic acid” (American Home Products Corporation, priority 1985, dated 1987)
